Results published in patent EP0215063B1, “PYRIDO (2,3-d )PYRIMIDIN DERIVATIVES” (priority 1985, dated 1986).
pIC50: −log10 of the molar value. Values joined by “and” are separate entries in the source; they are usually repeats but may differ in a detail not shown here. Equal values may be shown once. Read-outs that look alike come from different tables or passages of the source.

Key:
mouse L1210 leukemia = settings: literature; cited from earlier work
[1] = literature (Taylor et al.); cited from earlier work
[2] = literature; cited from earlier work
dihydrofolate reductase = biological target: T1, dihydrofolate reductase (Homo sapiens, UniProt P00374); settings: literature (De Graw et al.); cited from earlier work
T1 sequence (P00374 1-187): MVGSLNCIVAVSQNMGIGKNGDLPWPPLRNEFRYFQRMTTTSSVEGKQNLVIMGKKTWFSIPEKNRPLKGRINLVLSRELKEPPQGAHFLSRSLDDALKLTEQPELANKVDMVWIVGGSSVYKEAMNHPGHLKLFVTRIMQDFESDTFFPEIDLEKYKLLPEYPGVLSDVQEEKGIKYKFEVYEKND

[3] = biological target: T2, Dihydrofolate Reductase (DHFR) (Homo sapiens, UniProt P00374); test: Inhibition of Dihydrofolate Reductase (DHFR); assay type: biochemical
T2 sequence (P00374 1-187): T1 sequence (P00374 1-187)

[4] = biological target: T3, Folate Polyglutamate Synthetase (Mus musculus, UniProt P48760); test: Substrate for Folate Polyglutamate Synthetase (partially purified mouse liver FPGS); assay type: biochemical
T3 construct: Incubation with partially purified mouse liver FPGS; from tissue; host or cells: mouse liver
T3 sequence (P48760 43-587): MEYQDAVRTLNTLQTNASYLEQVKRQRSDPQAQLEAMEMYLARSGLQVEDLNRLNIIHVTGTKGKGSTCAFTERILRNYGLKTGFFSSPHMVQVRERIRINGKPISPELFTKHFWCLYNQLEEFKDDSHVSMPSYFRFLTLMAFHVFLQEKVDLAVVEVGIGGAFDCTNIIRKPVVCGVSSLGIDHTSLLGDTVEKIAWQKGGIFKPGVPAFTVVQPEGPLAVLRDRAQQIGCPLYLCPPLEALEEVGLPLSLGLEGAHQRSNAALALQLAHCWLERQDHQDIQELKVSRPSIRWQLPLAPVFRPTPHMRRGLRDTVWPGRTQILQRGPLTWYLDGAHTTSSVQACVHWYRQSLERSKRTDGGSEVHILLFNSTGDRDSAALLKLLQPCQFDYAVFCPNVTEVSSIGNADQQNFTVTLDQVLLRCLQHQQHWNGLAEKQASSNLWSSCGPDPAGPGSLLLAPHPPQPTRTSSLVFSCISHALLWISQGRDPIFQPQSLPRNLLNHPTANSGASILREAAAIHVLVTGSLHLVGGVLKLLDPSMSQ

[5] = tested on: L1210 murine leukemic cells; test: Inhibition of L1210 murine leukemic cells in tissue culture; assay type: cell-based; settings: Mus musculus, read-out: IC₅₀
L-1210 leukemia = test: Increase in life span, % ILS (Table 5, title only as image); assay type: in vivo
[6] = tested on: Methotrexate-Resistant L-1210 Leukemia; test: Effect on Methotrexate-Resistant L-1210 Leukemia; assay type: in vivo; settings: for Mean Increased Life span in days: in vivo
[7] = tested on: X5563 Plasma Cell Myeloma; settings: mouse, in vivo
6C3HED Lymphosarcoma = test: Subcutaneous tumor growth inhibition in mice; settings: mouse, in vivo
B-16 = test: Subcutaneous tumor growth inhibition in mice; settings: mouse, in vivo
[8] = tested on: C3H Mammary Adenocarcinoma; test: Subcutaneous tumor growth inhibition in mice; settings: mouse, in vivo
Lewis Lung Carcinoma = test: Subcutaneous tumor growth inhibition in mice; settings: mouse, in vivo
Madison Lung = test: Subcutaneous tumor growth inhibition in mice; settings: mouse, in vivo
[9] = biological target: T3, Folate Polyglutamate Synthetase; settings: relative to folic acid; published data (Moran et al.); cited from earlier work
[10] = relative to folic acid, one hour at 37°C

Nc1nc(N)c2cc(CCc3ccc(C(=O)N[C@@H](CCC(=O)O)C(=O)O)cc3)ccc2n1 [5,8,10-trideazaaminopterin]
activity against mouse L1210 leukemia (in words) (mouse L1210 leukemia): exhibits activity

Nc1nc2ccc(CCc3ccc(C(=O)N[C@@H](CCC(=O)O)C(=O)O)cc3)cc2c(=O)[nH]1 [5,8,10-trideazafolic acid]
activity against mouse L1210 leukemia (in words) (mouse L1210 leukemia): only marginal activity

Nc1nc2ncc(CNc3ccc(C(=O)N[C@@H](CCC(=O)O)C(=O)O)cc3)cc2c(=O)[nH]1 [5-Deazafolic acid]
cytotoxicity (in words) [1]: only weakly cytotoxic

Nc1nc(N)c2nc(CCc3ccc(C(=O)N[C@@H](CCC(=O)O)C(=O)O)cc3)ccc2n1 [8,10-Dideazaaminopterin]
antimetabolic activity (in words) [2]: active

Nc1nc2ccc(CCc3ccc(C(=O)N[C@@H](CCC(=O)O)C(=O)O)cc3)nc2c(=O)[nH]1 [8,10-Dideazafolic acid]
effectiveness as a dihydrofolate reductase inhibitor (in words) (dihydrofolate reductase): only marginally effective

Nc1nc(N)c2nc(CCc3ccc(C(=O)N[C@@H](CCC(=O)O)C(=O)O)cc3)cnc2n1 [10-Deaza-aminopterin]
antimetabolic activity (in words) [2]: highly active

Nc1nc2ncc(CCc3ccc(C(=O)N[C@@H](CCC(=O)O)C(=O)O)cc3)nc2c(=O)[nH]1 [10-deazafolic acid]
antimetabolic activity (in words) [2]: no significant activity

Nc1nc(N)c2cc(CCc3ccc(C(=O)N[C@@H](CCC(=O)O)C(=O)O)cc3)cnc2n1 [Compound 1, N-(4-[2(2,4-diaminopyrido[2,3-d]-pyrimidin-6-yl)ethyl]benzoyl)-L-glutamic acid]
pIC50 [3]: 7.37
Rel Vmax [4, 10]: 0.35 ± 0.02
pIC50 [5]: 7.77
% ILS (L-1210 leukemia; dose 4 mg/kg): 130%

Nc1nc(O)c2cc(CCc3ccc(C(=O)N[C@@H](CCC(=O)O)C(=O)O)cc3)cnc2n1 [Compound 2, N-(4-[2-(2-amino-4-hydroxypyrido[2,3-d]pyrimidin-6-yl)ethyl]benzoyl)-L-glutamic acid]
pIC50 [3]: 4.31
Rel Vmax [4, 10]: 0.90 ± 0.10
pIC50 [5]: < 4.00

Nc1nc(N)c2c(n1)NCC(CCc1ccc(C(=O)N[C@@H](CCC(=O)O)C(=O)O)cc1)C2 (stereo partly drawn) [Compound 3, N-(4-[2-(2,4-diamino-5,6,7,8-tetrahydropyrido[2,3-d]pyrimidin-6-yl)ethyl]benzoyl)-L-glutamic acid]
pIC50 [3]: 7.15
Rel Vmax [4, 10]: 1.61 ± 0.05
pIC50 [5]: 8.48
% ILS (L-1210 leukemia; dose 1 mg/kg): 111%

Nc1nc2c(c(=O)[nH]1)CC(CCc1ccc(C(=O)N[C@@H](CCC(=O)O)C(=O)O)cc1)CN2 (stereo partly drawn) [Compound 4, N-(4-[2-(2-amino-4-hydroxy-5,6,7,8-tetrahydropyrido[2,3-d]pyrimidin-6-yl)ethyl]benzoyl)-L-glutamic acid]
inhibition of dihydrofolate reductase (in words) [3]: weak inhibitor
Rel Vmax [4]: 1.24 ± 0.10
activity against L-1210 leukemia (in words) (L-1210 leukemia; in vivo): good activity
% ILS (L-1210 leukemia; in vivo, 2 mg/kg): 27%
% ILS (L-1210 leukemia; in vivo, 4 mg/kg): 35%
% ILS (L-1210 leukemia; in vivo, 8 mg/kg): 59%
% ILS (L-1210 leukemia; in vivo, 12 mg/kg): 63%
Mean Increased Life span in days ([6]; 2 mg/kg): +8 days
Mean Increased Life span in days ([6]; 4 mg/kg): +11 days
Mean Increased Life span in days ([6]; 8 mg/kg): +17 days
Mean Increased Life span in days ([6]; 12 mg/kg): +25 days
% INHIBITION [7]: 100%
toxicity (footnote) [7]: † Toxic
% INHIBITION (6C3HED Lymphosarcoma): 91% and 100%
% INHIBITION (B-16): 98% and 99% and 100%
% INHIBITION [8]: 86% and 100%
% INHIBITION (Lewis Lung Carcinoma): 58% and 77% and 94% and 100%
% INHIBITION (Madison Lung): 54% and 72% and 87% and 90%

Nc1nc2c(c(=O)[nH]1)NC(CNc1ccc(C(=O)N[C@@H](CCC(=O)O)C(=O)O)cc1)CN2 (some centres unmarked) [FH4]
Rel Vmax [9]: 1.31 ± 0.07

CN(Cc1cnc2nc(N)nc(N)c2n1)c1ccc(C(=O)N[C@@H](CCC(=O)O)C(=O)O)cc1 [Methotrexate, methotrexate, reference compound]
Mean Increased Life span ([6]; dose 2 mg/kg): 0 days
